The NIST ThermoML archive (doi:10.1016/j.fluid.2017.10.027)
± gives the expanded uncertainty stated by the source.

Conditions: Liquid; for mass density: Vibrating tube method; for speed of sound: Sing-around technique in a fixed-path interferometer

CCCCOCCO [2-butoxyethan-1-ol]
Conditions | mass density, 100 kPa [kg/m3] | mass density, 101.33 kPa [kg/m3] | mass density, 2500 kPa [kg/m3] | mass density, 5000 kPa [kg/m3] | mass density, 10000 kPa [kg/m3] | mass density, 15000 kPa [kg/m3] | mass density, 20000 kPa [kg/m3] | mass density, 25000 kPa [kg/m3] | mass density, 30000 kPa [kg/m3] | speed of sound, 101.33 kPa [m/s]
293.15 K | 900 ± 2 | – | 902 ± 2 | 903 ± 2 | 907 ± 2 | 910 ± 2 | 913 ± 2 | 916 ± 2 | 919 ± 2 | –
298.15 K | – | 896.17 ± 0.23 | – | – | – | – | – | – | – | 1304.7 ± 3.2
303.15 K | 892 ± 2 | – | 893 ± 2 | 895 ± 2 | 899 ± 2 | 902 ± 2 | 905 ± 2 | 909 ± 2 | 912 ± 2 | –
313.15 K | 883 ± 2 | – | 885 ± 2 | 887 ± 2 | 889 ± 2 | 894 ± 2 | 898 ± 2 | 901 ± 2 | 904 ± 2 | –
323.15 K | 873 ± 2 | – | 875 ± 2 | 877 ± 2 | 879 ± 2 | 886 ± 2 | 890 ± 2 | 893 ± 2 | 896 ± 2 | –
333.15 K | 866 ± 2 | – | 868 ± 2 | 870 ± 2 | 874 ± 2 | 878 ± 2 | 882 ± 2 | 885 ± 2 | 889 ± 2 | –
343.15 K | 857 ± 2 | – | 860 ± 2 | 862 ± 2 | 866 ± 2 | 870 ± 2 | 874 ± 2 | 877 ± 2 | 881 ± 2 | –
353.15 K | 849 ± 2 | – | 851 ± 2 | 853 ± 2 | 857 ± 2 | 862 ± 2 | 866 ± 2 | 869 ± 2 | 873 ± 2 | –
363.15 K | 839 ± 2 | – | 842 ± 2 | 844 ± 2 | 849 ± 2 | 853 ± 2 | 857 ± 2 | 861 ± 2 | 865 ± 2 | –
373.15 K | 830 ± 2 | – | 833 ± 2 | 835 ± 2 | 840 ± 2 | 845 ± 2 | 849 ± 2 | 853 ± 2 | 857 ± 2 | –
383.15 K | 821 ± 2 | – | 823 ± 2 | 826 ± 2 | 831 ± 2 | 836 ± 2 | 841 ± 2 | 845 ± 2 | 849 ± 2 | –
393.15 K | 811 ± 2 | – | 814 ± 2 | 817 ± 2 | 822 ± 2 | 827 ± 2 | 832 ± 2 | 837 ± 2 | 841 ± 2 | –
403.15 K | 801 ± 2 | – | 804 ± 2 | 807 ± 2 | 813 ± 2 | 819 ± 2 | 824 ± 2 | 829 ± 2 | 833 ± 2 | –
413.15 K | 790 ± 2 | – | 794 ± 2 | 797 ± 2 | 804 ± 2 | 810 ± 2 | 815 ± 2 | 821 ± 2 | 825 ± 2 | –

CCOCCO [2-ethoxyethan-1-ol]
Conditions | mass density, 100 kPa [kg/m3] | mass density, 101.33 kPa [kg/m3] | mass density, 2500 kPa [kg/m3] | mass density, 5000 kPa [kg/m3] | mass density, 10000 kPa [kg/m3] | mass density, 15000 kPa [kg/m3] | mass density, 20000 kPa [kg/m3] | mass density, 25000 kPa [kg/m3] | mass density, 30000 kPa [kg/m3] | speed of sound, 101.33 kPa [m/s]
293.15 K | 931 ± 2 | – | 933 ± 2 | 934 ± 2 | 938 ± 2 | 941 ± 2 | 944 ± 2 | 947 ± 2 | 950 ± 2 | –
298.15 K | – | 925.64 ± 0.23 | – | – | – | – | – | – | – | 1305.7 ± 3.2
303.15 K | 922 ± 2 | – | 924 ± 2 | 925 ± 2 | 929 ± 2 | 932 ± 2 | 936 ± 2 | 939 ± 2 | 942 ± 2 | –
313.15 K | 913 ± 2 | – | 914 ± 2 | 916 ± 2 | 920 ± 2 | 924 ± 2 | 927 ± 2 | 930 ± 2 | 933 ± 2 | –
323.15 K | 903 ± 2 | – | 905 ± 2 | 907 ± 2 | 911 ± 2 | 915 ± 2 | 918 ± 2 | 922 ± 2 | 925 ± 2 | –
333.15 K | 894 ± 2 | – | 896 ± 2 | 898 ± 2 | 902 ± 2 | 906 ± 2 | 910 ± 2 | 913 ± 2 | 917 ± 2 | –
343.15 K | 884 ± 2 | – | 886 ± 2 | 889 ± 2 | 893 ± 2 | 897 ± 2 | 901 ± 2 | 905 ± 2 | 908 ± 2 | –
353.15 K | 874 ± 2 | – | 877 ± 2 | 879 ± 2 | 884 ± 2 | 888 ± 2 | 892 ± 2 | 896 ± 2 | 900 ± 2 | –
363.15 K | 864 ± 2 | – | 867 ± 2 | 869 ± 2 | 874 ± 2 | 879 ± 2 | 883 ± 2 | 887 ± 2 | 891 ± 2 | –
373.15 K | 854 ± 2 | – | 857 ± 2 | 859 ± 2 | 865 ± 2 | 869 ± 2 | 874 ± 2 | 878 ± 2 | 882 ± 2 | –
383.15 K | 843 ± 2 | – | 846 ± 2 | 849 ± 2 | 855 ± 2 | 860 ± 2 | 865 ± 2 | 869 ± 2 | 874 ± 2 | –
393.15 K | 832 ± 2 | – | 836 ± 2 | 839 ± 2 | 845 ± 2 | 850 ± 2 | 855 ± 2 | 860 ± 2 | 865 ± 2 | –

CCCOCCO [2-propoxyethanol]
Conditions | mass density, 100 kPa [kg/m3] | mass density, 101.33 kPa [kg/m3] | mass density, 2500 kPa [kg/m3] | mass density, 5000 kPa [kg/m3] | mass density, 10000 kPa [kg/m3] | mass density, 15000 kPa [kg/m3] | mass density, 20000 kPa [kg/m3] | mass density, 25000 kPa [kg/m3] | mass density, 30000 kPa [kg/m3] | speed of sound, 101.33 kPa [m/s]
293.15 K | 911 ± 2 | – | 913 ± 2 | 915 ± 2 | 918 ± 2 | 922 ± 2 | 925 ± 2 | 928 ± 2 | 931 ± 2 | –
298.15 K | – | 907.23 ± 0.15 | – | – | – | – | – | – | – | 1298.8 ± 3.1
303.15 K | 903 ± 2 | – | 904 ± 2 | 906 ± 2 | 910 ± 2 | 913 ± 2 | 917 ± 2 | 920 ± 2 | 923 ± 2 | –
313.15 K | 894 ± 2 | – | 896 ± 2 | 898 ± 2 | 901 ± 2 | 905 ± 2 | 908 ± 2 | 912 ± 2 | 915 ± 2 | –
323.15 K | 885 ± 2 | – | 887 ± 2 | 889 ± 2 | 893 ± 2 | 897 ± 2 | 900 ± 2 | 904 ± 2 | 907 ± 2 | –
333.15 K | 876 ± 2 | – | 878 ± 2 | 880 ± 2 | 884 ± 2 | 888 ± 2 | 892 ± 2 | 895 ± 2 | 899 ± 2 | –
343.15 K | 867 ± 2 | – | 869 ± 2 | 871 ± 2 | 875 ± 2 | 879 ± 2 | 883 ± 2 | 887 ± 2 | 891 ± 2 | –
353.15 K | 857 ± 2 | – | 860 ± 2 | 862 ± 2 | 866 ± 2 | 871 ± 2 | 875 ± 2 | 879 ± 2 | 882 ± 2 | –
363.15 K | 848 ± 2 | – | 850 ± 2 | 853 ± 2 | 857 ± 2 | 862 ± 2 | 866 ± 2 | 870 ± 2 | 874 ± 2 | –
373.15 K | 838 ± 2 | – | 840 ± 2 | 843 ± 2 | 848 ± 2 | 853 ± 2 | 858 ± 2 | 862 ± 2 | 866 ± 2 | –
383.15 K | 828 ± 2 | – | 830 ± 2 | 833 ± 2 | 839 ± 2 | 844 ± 2 | 849 ± 2 | 853 ± 2 | 858 ± 2 | –
393.15 K | 817 ± 2 | – | 820 ± 2 | 823 ± 2 | 829 ± 2 | 835 ± 2 | 840 ± 2 | 845 ± 2 | 849 ± 2 | –
403.15 K | 806 ± 2 | – | 810 ± 2 | 813 ± 2 | 819 ± 2 | 825 ± 2 | 831 ± 2 | 836 ± 2 | 841 ± 2 | –
413.15 K | 795 ± 2 | – | 799 ± 2 | 803 ± 2 | 810 ± 2 | 816 ± 2 | 822 ± 2 | 827 ± 2 | 832 ± 2 | –
